In ChEMBL document CHEMBL6153108, “Otitiglycomycins A and B: Glycolipids from the Strain Nocardia otitidiscavarum 20S-13 with Antiviral Activity against Zika Virus” (J Nat Prod, 2025):
Active and inactive are the calls of the source. The calls are words filed in the database; no cut-off is given here.

Columns and labels:
Zika virus [1] = assay: Antiviral activity against ZIKV MR766NIID expressing GFP infected in african green monkey Vero E6 assessed as reduction in viral replication incubated for 24 hrs by flow cytometry assay; type: functional, organism-based; details: for Activity: dose 0.3-100 µM
Vero C1008 = assay: Cytotoxicity against african green monkey Vero E6 cells assessed as cell viability at 100 uM incubated for 48 hrs by MTS assay; type: toxicity, cell-based; details: chlorocebus sabaeus, vero c1008, 48 h
[2] = Cytotoxicity against african green monkey Vero E6 cells assessed as cell viability incubated for 48 hrs by MTS assay; type: toxicity, cell-based, Vero C1008; details: African green monkey (Chlorocebus sabaeus)
Zika virus [3] = assay: Antiviral activity against ZIKV MR766NIID expressing GFP infected in african green monkey Vero E6 assessed as reduction in viral replication preincubated for 2 hrs and measured after 22 hrs by flow cytometry assay; type: functional, organism-based; details: time 24.0 hrs
[4] = Selectivity index, ratio of IC50 for cytotoxicity against african green monkey Vero E6 cells to IC50 for ZIKV MR766NIID expressing GFP infected in african green monkey; type: toxicity, cell-based; details: read-out: Ratio IC50
Zika virus [5] = assay: Antiviral activity against ZIKV MR766NIID expressing GFP infected in african green monkey Vero E6 assessed as reduction in virus attachment to cell surface at 25 uM incubated for 1 hr by RT-qPCR analysis relative to control; type: functional; parameters: scale not given: the % may be the effect or the level left
Zika virus [6] = assay: Antiviral activity against ZIKV MR766NIID expressing GFP infected in african green monkey Vero E6 assessed as reduction in viral replication measured after 24 hrs by flow cytometry assay; type: functional; parameters: scale not given: the % may be the effect or the level left
Zika virus [7] = assay: Antiviral activity against ZIKV MR766NIID expressing GFP infected in african green monkey Vero E6 assessed as neutralization of viral infection at 25 uM compound preincubated with virus for 2 hrs followed by 0.7 uM compound addition and measured after 2 hrs by flow cytometry analysis relative to control; type: functional, organism-based; details: time 4.0 hrs
Zika virus [8] = assay: Antiviral activity against ZIKV MR766NIID expressing GFP infected in african green monkey Vero E6 assessed as reduction in viral replication at 50 uM incubated for 24 hrs by flow cytometry assay relative to control; type: functional; parameters: scale not given: the % may be the effect or the level left

| Compound | Activity (Zika virus [1]) | Activity (Vero C1008) | IC50 at 48 h [2] [µM] | Activity (Zika virus [3]) | IC50 (Zika virus [1]; Vero C1008, 24 h) [µM] | selectivity ratio [4] | Activity (Zika virus [5]) [%] | Activity (Zika virus [6]) [%] | Activity (Zika virus [7]) | Activity (Zika virus [8]) [%] |
| --- | --- | --- | --- | --- | --- | --- | --- | --- | --- | --- |
| CCCCCCCCCCCCCCC(=O)O[C@H]1[C@@H](O[C@H](CO)C(=O)O)O[C@H](CO)[C@@H](O)[C@@H]1O | inactive | Non-toxic | > 100 | – | – | – | – | – | – | – |
| CCCCCCCCCCCCCCCCCC(=O)O[C@H]1[C@@H](O[C@H](CO)C(=O)O)O[C@H](CO)[C@@H](O)[C@@H]1OC(=O)C(C)C | Dose-dependent-effect | Non-toxic | > 100 | inactive | 10.5 | > 10 | 90 | 100 | Active | 100 |
